{"source": "patent US4512980A", "about": "“Peptide, process for preparation thereof and use thereof” (priority 1979, dated 1985)", "key": {"E. coli 22": {"system": "E. coli 22", "experiment": "Protective efficacy in experimental infection in mice", "assay_type": "in vivo", "conditions": "male ICR mice, E. coli 22 i.p., survival after four days", "method": "In determining the protective efficacy against experimental infections in mice, the test compound was dissolved in and diluted with sterile saline to provide prescribed concentrations of drug.\nMale ICR-strain mice, aged 4 weeks were used in groups of ten mice. E. coli 22 was cultivated overnight at 37° C. on trypticase soy agar and then were suspended in a sterile saline to obtain microbial cell concentration of 9.0×10^7 CFU/ml. Mice were inoculated intraperitoneally with 0.2 ml of the suspension. Each of the test drugs was given intraperitoneally in various doses to a group of ten mice 24 hours before challenge.\nSurvival percent were found from the number of the surviving animals after four days of injection."}, "Mice (DDY male 5-6 W)": {"system": "Mice (DDY male 5-6 W)", "experiment": "Blood stream clearance of carbon", "assay_type": "in vivo", "conditions": "carbon clearance measured 24 hours later", "method": "1. Carbon suspension. Rotoring drawing ink (170 mg carbon/ml.) was diluted to 1/5 of the original concentration in saline containing 1% gelatin. 2. 0.1% aqueous sodium carbonate solution. Mice (DDY male 5-6 W) were injected via the tail vein with a dose of 0.01 ml/g body weight of carbon. Blood samples were taken by means of a pointed capillary […] calibrated to hold a 50 μl and previously washed in heparin. This was plunged into the retroorbital venous sinus at the nasal angle of the eye. The samples were removed at 3 and 6 min. The blood was immediately discharged into 3.0 ml. of the sodium carbonate solution. This hemolyzed the blood and allowed the quantitation of carbon. The samples were then read in a spectrophotometer at 660 nm, the log concentration being obtained from a previously determined standard curve. The clearance value K may be determined by plotting log carbon concentration against time according to the following relationship; [formula] in which T1 and T2 represent the time in min when the sample were withdrawn and C1 and C2 represent the concentrations of carbon in the blood at the time T1 and T2, respectively. The aqueous solution of the drug as given was administered subcutaneously to mice. Twenty four hours later, blood stream clearance of carbon was measured. K value obtained with treated mice was compared with that of control mice."}}}
{"substance": "D-Lac-L-Ala-γ-D-Glu(α-OH)-(L)-[D-Lac-L-Ala-γ-D-Glu(α-OH)-(L)-mesoDAP-(D)-Gly]-(D)-mesoDAP-(L)-GlyOH [Example 13 (Step 2)]", "values": [{"measurement": "Survival (%)", "setting": "E. coli 22; dose 1 mg/kg intraperitoneally 24 hours before challenge", "result": 100, "unit": "%"}, {"measurement": "Survival (%)", "setting": "E. coli 22; dose 10 mg/kg intraperitoneally 24 hours before challenge", "result": 100, "unit": "%"}, {"measurement": "K treated/K control", "setting": "Mice (DDY male 5-6 W); dose 1 mg/mouse subcutaneously", "result": 0.6}, {"measurement": "K treated/K control", "setting": "Mice (DDY male 5-6 W); dose 100 mg/mouse subcutaneously", "result": 1.6}]}
